{"source": "paper PMC7520961", "about": "“Safety evaluation of the interchangeable use of robenacoxib in commercially-available tablets and solution for injection in cats” (BMC Veterinary Research, 2020)", "key": {"[1]": {"set-up": "method as in PMID 19161452, PMID 23438125", "settings": "elimination in the cat; cited from earlier work"}, "[2]": {"test_system": "cats", "experiment": "Clinical chemistry (target animal safety study)", "type": "in vivo, cat", "settings": "for Total Bilirubin (mean ± SD) / GGT (mean ± SD) / AST (mean ± SD) / Creatine Kinase (mean ± SD) / Creatinine (mean ± SD) / Albumin/Globulin Ratio (mean ± SD) / Globulin (mean ± SD) / Albumin (mean ± SD) / Potassium (mean ± SD) / Total Protein (mean ± SD) / Phosphorus (mean ± SD) / Calcium (mean ± SD) / Triglyceride (mean ± SD) / Urea Nitrogen (mean ± SD) / ALT (mean ± SD) / Alkaline Phosphatase (mean ± SD) / Glucose (mean ± SD) / Cholesterol (mean ± SD) / Chloride (mean ± SD) / Sodium (mean ± SD): post-treatment, average of days 13 and 37; for Total Bilirubin (mean ± SD): reference range 0 - 0.3; for GGT (mean ± SD): reference range 0 – 2; for GGT (mean ± SD) / Albumin/Globulin Ratio (mean ± SD): significant treatment x sex and treatment x time effects (p<0.1); for AST (mean ± SD): reference range 0 – 55; for AST (mean ± SD) / Triglyceride (mean ± SD): significant treatment x sex effect (p<0.1); for Creatine Kinase (mean ± SD): reference range 0 – 1213; for Creatinine (mean ± SD): reference range 0.5 - 1.3; for Albumin/Globulin Ratio (mean ± SD): reference range 0.9 - 1.5; for Globulin (mean ± SD): reference range 2.1 - 3.3; for Albumin (mean ± SD): reference range 2.9 - 3.7; for Potassium (mean ± SD): reference range 4.6 - 7.4, significant treatment x time effect (p<0.1); for Total Protein (mean ± SD): reference range 5.4 - 6.7; for Phosphorus (mean ± SD): reference range 6.2 - 9.7, significant (p<0.1); for Calcium (mean ± SD): reference range 9.6 - 11.5; for Triglyceride (mean ± SD): reference range 12 – 64; for Urea Nitrogen (mean ± SD): reference range 15 – 35; for ALT (mean ± SD): reference range 27 – 103; for Alkaline Phosphatase (mean ± SD): reference range 50 – 186; for Glucose (mean ± SD): reference range 55 - 159; for Cholesterol (mean ± SD): reference range 88 – 148; for Chloride (mean ± SD): reference range 112 – 123; for Sodium (mean ± SD): reference range 146 – 160", "protocol": "The upper lip was everted and a Surgicutt incision device was used to create a small incision (approximately 1 mm in depth and 3.5 mm in length). Blood flow from the incision site was blotted using filter paper below the incision. The elapsed time from the triggering of the device until blood no longer appeared on the filter paper was recorded as the bleed time. […] Blood samples (3.0 mL) were collected from the jugular vein into tubes containing K3EDTA for evaluation of hematology parameters, sodium citrate for evaluation of coagulation parameters, and serum separators with no anticoagulant for the clinical chemistry samples. […] Coagulation variables were determined using a Stago Compact (Diagnostica Stago, Parsippany, NJ, US), clinical chemistry variables were determined using an Olympus AU2700 or AU640e (Olympus Diagnostics, Southall, UK), and urinalysis variables were determined using a […]-500 or Atlas (Siemens, Munich, Germany), Reichert VET 360 (Reichert Technologies, Buffalo, New York, USA), or light microscope. Post-treatment values were analyzed using […], with treatment group, sex, time, and their interactions as fixed model effects and the pre-treatment value measured closest to dosing as a covariate. Repeated measurements in the same animal were modeled using a compound symmetry or heterogeneous compound symmetry correlation structure (for food consumption: autoregressive first-order or heterogeneous autoregressive first-order); the model with the smallest Akaike's Information Criterion was selected for each outcome. If any of the interactions involving treatment was significant (p < 0.1 for the two-factor interactions or p < 0.05 for the three-factor interaction), it was inappropriate to evaluate the main or overall treatment effect independently of the interacting factor and, as such, treatment comparisons were conducted for each level of the interacting factor. If none of the interactions involving treatment were significant, overall treatment differences were assessed."}, "[3]": {"test_system": "anesthetized cats", "set-up": "method as in ref 24 = [24]; 24. Panteri A Deurinck M Seewald W Gerber S King JN Desevaux C Safety of intravenous Robenacoxib (Onsior) in cats J Vet Pharmacol Ther 2015 38 S1 149", "settings": "single dose SC 2 mg/kg or 2 or 4 mg/kg IV, 5 or 60 min post administration; cited from earlier work"}, "[4]": {"settings": "1X (oral ≥2.4, SC 2.0 mg/kg/day)"}, "[5]": {"settings": "2X (oral ≥4.8, SC 4.0 mg/kg/day)"}, "[6]": {"settings": "3X (oral ≥7.2, SC 6.0 mg/kg/day)"}}}
{"smiles": "CCc1ccc(Nc2c(F)c(F)cc(F)c2F)c(CC(=O)O)c1", "note": "[robenacoxib]", "values": [{"measurement": "half-life", "setting": "[1]", "value": "less than 2 hours"}, {"measurement": "Total Bilirubin (mean ± SD)", "setting": "[2]; [4]", "value": "0.18 ± 0.04", "unit": "mg/dL"}, {"measurement": "GGT (mean ± SD)", "setting": "[2]; [4]", "value": "1.14 ± 0.43", "unit": "U/L"}, {"measurement": "AST (mean ± SD)", "setting": "[2]; [4]", "value": "22.2 ± 8.6", "unit": "U/L"}, {"measurement": "Creatine Kinase (mean ± SD)", "setting": "[2]; [4]", "value": "1479 ± 1901", "unit": "U/L"}, {"measurement": "Creatinine (mean ± SD)", "setting": "[2]; [4]", "value": "0.86 ± 0.13", "unit": "mg/dL"}, {"measurement": "Albumin/Globulin Ratio (mean ± SD)", "setting": "[2]; [4]", "value": "1.29 ± 0.14"}, {"measurement": "Globulin (mean ± SD)", "setting": "[2]; [4]", "value": "2.62 ± 0.23", "unit": "g/dL"}, {"measurement": "Albumin (mean ± SD)", "setting": "[2]; [4]", "value": "3.31 ± 0.21", "unit": "g/dL"}, {"measurement": "Potassium (mean ± SD)", "setting": "[2]; [4]", "value": "5.40 ± 0.24", "unit": "mEq/L"}, {"measurement": "Total Protein (mean ± SD)", "setting": "[2]; [4]", "value": "5.93 ± 0.28", "unit": "g/dL"}, {"measurement": "Phosphorus (mean ± SD)", "setting": "[2]; [4]", "value": "8.86 ± 0.76", "unit": "mg/dL"}, {"measurement": "Calcium (mean ± SD)", "setting": "[2]; [4]", "value": "10.01 ± 0.31", "unit": "mg/dL"}, {"measurement": "Triglyceride (mean ± SD)", "setting": "[2]; [4]", "value": "40.1 ± 27.2", "unit": "mg/dL"}, {"measurement": "Urea Nitrogen (mean ± SD)", "setting": "[2]; [4]", "value": "25.3 ± 2.7", "unit": "mg/dL"}, {"measurement": "ALT (mean ± SD)", "setting": "[2]; [4]", "value": "54.6 ± 9.2", "unit": "U/L"}, {"measurement": "Alkaline Phosphatase (mean ± SD)", "setting": "[2]; [4]", "value": "105.6 ± 40.6", "unit": "U/L"}, {"measurement": "Glucose (mean ± SD)", "setting": "[2]; [4]", "value": "85.1 ± 7.1", "unit": "mg/dL"}, {"measurement": "Cholesterol (mean ± SD)", "setting": "[2]; [4]", "value": "105.0 ± 18.1", "unit": "mg/dL"}, {"measurement": "Chloride (mean ± SD)", "setting": "[2]; [4]", "value": "116.63 ± 1.50", "unit": "mEq/L"}, {"measurement": "Sodium (mean ± SD)", "setting": "[2]; [4]", "value": "150.3 ± 1.3", "unit": "mEq/L"}, {"measurement": "Total Bilirubin (mean ± SD)", "setting": "[2]; [5]", "value": "0.19 ± 0.03", "unit": "mg/dL"}, {"measurement": "GGT (mean ± SD)", "setting": "[2]; [5]", "value": "1.33 ± 0.65", "unit": "U/L"}, {"measurement": "AST (mean ± SD)", "setting": "[2]; [5]", "value": "22.0 ± 4.1", "unit": "U/L"}, {"measurement": "Creatine Kinase (mean ± SD)", "setting": "[2]; [5]", "value": "975 ± 903", "unit": "U/L"}, {"measurement": "Creatinine (mean ± SD)", "setting": "[2]; [5]", "value": "0.85 ± 0.12", "unit": "mg/dL"}, {"measurement": "Albumin/Globulin Ratio (mean ± SD)", "setting": "[2]; [5]", "value": "1.36 ± 0.14"}, {"measurement": "Globulin (mean ± SD)", "setting": "[2]; [5]", "value": "2.57 ± 0.28", "unit": "g/dL"}, {"measurement": "Albumin (mean ± SD)", "setting": "[2]; [5]", "value": "3.46 ± 0.17", "unit": "g/dL"}, {"measurement": "Potassium (mean ± SD)", "setting": "[2]; [5]", "value": "5.33 ± 0.41", "unit": "mEq/L"}, {"measurement": "Total Protein (mean ± SD)", "setting": "[2]; [5]", "value": "6.03 ± 0.35", "unit": "g/dL"}, {"measurement": "Phosphorus (mean ± SD)", "setting": "[2]; [5]", "value": "8.18 ± 0.83", "unit": "mg/dL"}, {"measurement": "Calcium (mean ± SD)", "setting": "[2]; [5]", "value": "10.16 ± 0.26", "unit": "mg/dL"}, {"measurement": "Triglyceride (mean ± SD)", "setting": "[2]; [5]", "value": "32.4 ± 9.1", "unit": "mg/dL"}, {"measurement": "Urea Nitrogen (mean ± SD)", "setting": "[2]; [5]", "value": "24.8 ± 4.0", "unit": "mg/dL"}, {"measurement": "ALT (mean ± SD)", "setting": "[2]; [5]", "value": "56.6 ± 9.4", "unit": "U/L"}, {"measurement": "Alkaline Phosphatase (mean ± SD)", "setting": "[2]; [5]", "value": "94.5 ± 24.4", "unit": "U/L"}, {"measurement": "Glucose (mean ± SD)", "setting": "[2]; [5]", "value": "84.1 ± 9.0", "unit": "mg/dL"}, {"measurement": "Cholesterol (mean ± SD)", "setting": "[2]; [5]", "value": "103.9 ± 14.2", "unit": "mg/dL"}, {"measurement": "Chloride (mean ± SD)", "setting": "[2]; [5]", "value": "115.88 ± 1.71", "unit": "mEq/L"}, {"measurement": "Sodium (mean ± SD)", "setting": "[2]; [5]", "value": "150.5 ± 1.4", "unit": "mEq/L"}, {"measurement": "phosphorus relative to controls (pairwise comparison, pooled samples over all time points)", "setting": "[2]; 2X group, not considered clinically relevant", "value": "decrease"}, {"measurement": "Total Bilirubin (mean ± SD)", "setting": "[2]; [6]", "value": "0.19 ± 0.03", "unit": "mg/dL"}, {"measurement": "GGT (mean ± SD)", "setting": "[2]; [6]", "value": "0.94 ± 0.05", "unit": "U/L"}, {"measurement": "AST (mean ± SD)", "setting": "[2]; [6]", "value": "22.8 ± 6.8", "unit": "U/L"}, {"measurement": "Creatine Kinase (mean ± SD)", "setting": "[2]; [6]", "value": "1763 ± 2175", "unit": "U/L"}, {"measurement": "Creatinine (mean ± SD)", "setting": "[2]; [6]", "value": "0.79 ± 0.12", "unit": "mg/dL"}, {"measurement": "Albumin/Globulin Ratio (mean ± SD)", "setting": "[2]; [6]", "value": "1.32 ± 0.16"}, {"measurement": "Globulin (mean ± SD)", "setting": "[2]; [6]", "value": "2.66 ± 0.29", "unit": "g/dL"}, {"measurement": "Albumin (mean ± SD)", "setting": "[2]; [6]", "value": "3.44 ± 0.18", "unit": "g/dL"}, {"measurement": "Potassium (mean ± SD)", "setting": "[2]; [6]", "value": "5.50 ± 0.43", "unit": "mEq/L"}, {"measurement": "Total Protein (mean ± SD)", "setting": "[2]; [6]", "value": "6.10 ± 0.34", "unit": "g/dL"}, {"measurement": "Phosphorus (mean ± SD)", "setting": "[2]; [6]", "value": "8.66 ± 0.78", "unit": "mg/dL"}, {"measurement": "Calcium (mean ± SD)", "setting": "[2]; [6]", "value": "10.17 ± 0.26", "unit": "mg/dL"}, {"measurement": "Triglyceride (mean ± SD)", "setting": "[2]; [6]", "value": "37.7 ± 14.7", "unit": "mg/dL"}, {"measurement": "Urea Nitrogen (mean ± SD)", "setting": "[2]; [6]", "value": "25.2 ± 3.9", "unit": "mg/dL"}, {"measurement": "ALT (mean ± SD)", "setting": "[2]; [6]", "value": "55.3 ± 10.5", "unit": "U/L"}, {"measurement": "Alkaline Phosphatase (mean ± SD)", "setting": "[2]; [6]", "value": "90.0 ± 19.5", "unit": "U/L"}, {"measurement": "Glucose (mean ± SD)", "setting": "[2]; [6]", "value": "83.1 ± 6.2", "unit": "mg/dL"}, {"measurement": "Cholesterol (mean ± SD)", "setting": "[2]; [6]", "value": "112.6 ± 23.7", "unit": "mg/dL"}, {"measurement": "Chloride (mean ± SD)", "setting": "[2]; [6]", "value": "115.81 ± 1.97", "unit": "mEq/L"}, {"measurement": "Sodium (mean ± SD)", "setting": "[2]; [6]", "value": "150.6 ± 1.5", "unit": "mEq/L"}, {"measurement": "electrocardiographic changes (including QT interval)", "setting": "[3]", "value": "no electrocardiographic changes"}]}
